The values that follow come from publication PMC7830863, “Characterization of Cross-Linked Enzyme Aggregates of the Y509E Mutant of a Glycoside Hydrolase Family 52 β-xylosidase from G. stearothermophilus” (Molecules, 2021).

For orientation: Km means the substrate concentration at which the rate is half of its maximum.

This assay concerns the target T1, XynB2 (Geobacillus stearothermophilus, UniProt Q09LZ0, Y509E).
T1 construct: recombinant in E. coli C43 from plasmid pJAVI100 (template pJAVI91); semi-purified by heat treatment (45 °C, 30 min) and dialysis; all rows Y509E
Briefly: p-nitrophenol release at […] nm, hyperbolic fit. The class given is biochemical. To be noted: free semi-purified (heat-treated extract) enzyme; 100 mM citrate phosphate-glycine buffer, pH 6.5, 50 °C.

T1 sequence (Q09LZ0 entry or part of it Y509E): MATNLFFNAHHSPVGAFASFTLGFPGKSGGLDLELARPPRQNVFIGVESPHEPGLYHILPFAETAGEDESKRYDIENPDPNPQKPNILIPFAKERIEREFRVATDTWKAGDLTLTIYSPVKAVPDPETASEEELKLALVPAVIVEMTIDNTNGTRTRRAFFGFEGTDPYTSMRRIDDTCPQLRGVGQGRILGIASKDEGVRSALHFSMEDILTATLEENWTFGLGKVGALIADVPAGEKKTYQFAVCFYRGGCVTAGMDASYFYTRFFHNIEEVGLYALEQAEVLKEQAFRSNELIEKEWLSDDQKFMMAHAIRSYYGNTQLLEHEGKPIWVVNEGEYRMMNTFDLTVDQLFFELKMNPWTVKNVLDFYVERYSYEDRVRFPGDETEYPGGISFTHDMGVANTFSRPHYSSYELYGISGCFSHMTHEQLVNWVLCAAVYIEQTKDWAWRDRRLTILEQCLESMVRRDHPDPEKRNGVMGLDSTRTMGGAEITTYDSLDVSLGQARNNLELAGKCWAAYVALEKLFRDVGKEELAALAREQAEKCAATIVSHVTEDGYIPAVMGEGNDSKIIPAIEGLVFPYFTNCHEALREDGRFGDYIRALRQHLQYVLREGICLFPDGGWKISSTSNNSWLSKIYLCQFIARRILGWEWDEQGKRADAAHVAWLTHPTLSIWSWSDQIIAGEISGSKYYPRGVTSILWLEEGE

Take `O=[N+]([O-])c1ccc(O[C@@H]2OC[C@@H](O)[C@H](O)[C@H]2O)cc1` [p-nitrophenyl-β-d-xylopyranoside]: the Michaelis-Menten constant (Km) turned out to be 900 ± 100 µM.
